The assay relates to A549. Nature of the assay: Growth inhibition of human A549 cells after 48 hrs by SRB assay. Format: functional. The note with it: A549, 48 h. Background: The SRB assay estimates cell density from bound dye.

Usually GI50 stands for the concentration at which growth is held to half of that of the control. Turning to `C/C=C/C=C/C=C(\CO)[C@H](OCc1c(O)cccc1CCC)[C@H](C)O`, the 50% growth inhibitory concentration (GI50) was determined as 25.6 µM. In other words, the double-digit micromolar range. To `C/C=C/C=C/C=C(\C=O)C(OCc1c(O)cccc1CCC)C(C)=O` (stereo unspecified) belongs 19.3 µM; to `C/C=C/C=C/C=C1\[C@H](OC)O[C@](C)(OC)[C@H]1OCc1c(O)cccc1CCC`, 16.2 µM. To `C/C=C/C=C/C=C1\CO[C@](C)(OC)[C@H]1OCc1c(O)cccc1CCC` belongs 24.3 µM; to `O=c1[nH]cc(F)c(=O)[nH]1` [FLUOROURACIL], 4.55 µM; to `C[C@@H]1C[C@H]2O[C@@H]2/C=C\C=C\C(=O)Cc2c(Cl)c(O)cc(O)c2C(=O)O1` [RADICICOL], 1.43 µM.

The values above are taken from ChEMBL document CHEMBL3286123, “Aliphatic phenolic ethers from Trichobotrys effusa” (2014).
